Source: patent US20240083845A1 (priority 2020, published 2024)

Biological target: SARS-CoV-2 Mpro (Severe acute respiratory syndrome coronavirus 2, UniProt P0DTD1)
Assay: SARS-CoV-2 Mpro enzyme assay (FRET)
Format: biochemical
Conditions: FRET substrate Dabcyl-KTSAVLQSGFRKM-E(Edans)-Amide, 20 nM enzyme, 30 min preincubation at 30° C., mean n=2; read-out: SARS-CoV-2 Mpro enzyme assay pKi (converted)

SMILES | Ki [nM]
NC(=O)C(=O)C(CC1CCCC1)NC(=O)[C@H](CC1CC1)NC(=O)/C=C/c1ccc(Cl)cc1F (stereo partly drawn) [Example 7, 3-((S)-2-((E)-3-(4-chloro-2-fluorophenyl)acrylamido)-3-cyclopropylpropanamido)-4-cyclopentyl-2-oxobutanamide] | 7940
CC(C)(C)C[C@H](NC(=O)/C=C/c1ccc(Cl)cc1F)C(=O)NC(C[C@@H]1CCNC1=O)C(=O)C(N)=O (stereo partly drawn) [Example 22, (2S)-N-(4-amino-3,4-dioxo-1-((S)-2-oxopyrrolidin-3-yl)butan-2-yl)-2-((E)-3-(4-chloro-2-fluorophenyl)acrylamido)-4,4-dimethylpentanamide] | 6.31
NC(=O)C(=O)C(C[C@@H]1CCNC1=O)NC(=O)[C@H](CC1CC1)NC(=O)/C=C/c1ccc(Cl)cc1F (stereo partly drawn) [Example 1, 3-((S)-2-((E)-3-(4-chloro-2-fluorophenyl)acrylamido)-3-cyclopropylpropanamido)-2-oxo-4-((S)-2-oxopyrrolidin-3-yl)butanamide] | 12.6
